The record followed here is patent publication US20240208978A1, “IDH MUTANT INHIBITOR AND USE THEREOF” (WIGEN BIOMEDICINE TECHNOLOGY (SHANGHAI) CO., LTD., priority 2021, published 2024).

Structures are written as SMILES.

The target of this assay is T1, mIDH1 R132H (Homo sapiens, UniProt O75874, R132H).
T1 construct: expressed in transfected cells; host or cells: U87MG
The experiment in a line: Detection of 2-HG in supernatant of U87-IDH1 R132H cells. Type of assay: cell-based. Particulars: U-87 MG, 72 h, U87MG cells overexpressing mIDH1 R132H, LC-MS-MS; for inhibition at 0.001 µM: 1 nM compound, read-out: Inhibition rate on 2-HG in the supernatant of U87-IDH R132H cells, 1 nM; for inhibition at 0.01 µM: 10 nM compound, read-out: Inhibition rate on 2-HG in the supernatant of U87-IDH R132H cells, 10 nM; for inhibition at 0.1 µM: 100 nM compound, read-out: Inhibition rate on 2-HG in the supernatant of U87-IDH R132H cells, 100 nM. As to the method:
U87MG cells overexpressing the mIDH1 R132H mutation or HT1080 cells carrying IDH1 R132C were seeded in a 48-well plate and a 96-well plate at 50,000 cells/well and 10,000 cells/well, respectively. After the cells were incubated overnight for adhesion, the supernatants were removed. The cell culture media containing serially diluted compounds were added, and the cells were incubated for 72 h. After 72 h, the culture media were collected and diluted 10-fold and 20-fold with water, respectively. Acetonitrile was added to extract the metabolites. The 2-HG content in the culture media was analyzed by LC-MS-MS. The percentage inhibition and IC50 of the compounds on 2-HG in the supernatant were calculated as compared with the control group.

T1 sequence (O75874 whole entry R132H): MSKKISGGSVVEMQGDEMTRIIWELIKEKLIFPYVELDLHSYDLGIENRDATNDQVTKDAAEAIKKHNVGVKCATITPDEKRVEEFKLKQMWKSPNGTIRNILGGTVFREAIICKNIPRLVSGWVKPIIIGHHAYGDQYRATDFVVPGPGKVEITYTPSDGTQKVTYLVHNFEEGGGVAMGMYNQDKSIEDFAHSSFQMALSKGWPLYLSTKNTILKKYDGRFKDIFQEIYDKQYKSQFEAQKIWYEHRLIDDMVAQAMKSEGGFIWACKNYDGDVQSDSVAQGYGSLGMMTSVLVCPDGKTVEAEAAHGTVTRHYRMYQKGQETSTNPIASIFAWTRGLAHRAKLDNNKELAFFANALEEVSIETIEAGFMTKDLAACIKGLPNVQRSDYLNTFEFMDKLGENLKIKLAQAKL

Regarding `C=CC(=O)N1CCN(C2(c3ccc([C@H](C)Nc4ncc5[nH]c(=O)n(CC)c5n4)cc3)CCCCC2)CC1` [Compound 16], the inhibition (as a rule, the relative decrease from the control value, in per cent) at 0.001 µM is 30 to 60%; the inhibition at 0.01 µM fell in the range of 60 to 90%; the inhibition at 0.1 µM was above 90%.

In the case of `C=CC(=O)N1CC(N(C)C(CC2CC2)c2ccc([C@H](C)Nc3ncc4[nH]c(=O)n(CC)c4n3)cc2)C1` (stereo partly drawn) [Compound 24], the inhibition at 0.001 µM lay in the range of 30 to 60%, the inhibition at 0.01 µM was 60 to 90% and the inhibition at 0.1 µM is above 90%.

As for `C=CC(=O)N1CCN(C2(c3ccc([C@H](C)Nc4ncc5[nH]c(=O)n(CC)c5n4)cc3)CCCC2)CC1` [Compound 15], the inhibition at 0.001 µM is 30 to 60%, the inhibition at 0.01 µM was above 90% and the inhibition at 0.1 µM was above 90%.

On to `C=CC(=O)N1CCN(C(CC23CC(C2)C3)c2ccc([C@H](C)Nc3ncc4[nH]c(=O)n(C(C)C)c4n3)cc2)CC1` (stereo partly drawn) [Compound 33], for which the inhibition at 0.001 µM is 60 to 90%, the inhibition at 0.01 µM was above 90% and the inhibition at 0.1 µM is above 90%.

For the compound `C=CC(=O)N1CCC2(C1)CN(C(CC1CC1)c1ccc([C@H](C)Nc3ncc4[nH]c(=O)n(CC)c4n3)cc1)C2` (stereo partly drawn) [Compound 19], the inhibition at 0.001 µM fell in the range of 30 to 60%, the inhibition at 0.01 µM lay in the range of 60 to 90% and the inhibition at 0.1 µM was above 90%.

On to `C=CC(=O)N1CCN(C(CC23CC(C2)C3)c2ccc([C@H](C)Nc3ncc4[nH]c(=O)n(C5CC5)c4n3)cc2)CC1` (stereo partly drawn) [Compound 34], for which the inhibition at 0.001 µM fell in the range of 60 to 90%, the inhibition at 0.01 µM was above 90% and the inhibition at 0.1 µM is above 90%.

With `C=CC(=O)N1CCN(C(CC(C)C)c2ccc([C@H](C)Nc3ncc4[nH]c(=O)n(C(C)C)c4n3)cc2)CC1` (stereo partly drawn) [Compound 29], the inhibition at 0.001 µM was 60 to 90%, the inhibition at 0.01 µM was above 90% and the inhibition at 0.1 µM was above 90%.

For `C=CC(=O)N1CC2(C1)CN(C(CC1CC1)c1ccc([C@H](C)Nc3ncc4[nH]c(=O)n(CC)c4n3)cc1)C2` (stereo partly drawn) [Compound 18], the inhibition at 0.001 µM was 30 to 60%, the inhibition at 0.01 µM is above 90% and the inhibition at 0.1 µM was above 90%.

Regarding `C=CC(=O)N1CCN(C(CC(C)C)c2ccc([C@H](C)Nc3ncc4[nH]c(=O)n(C5CCCC5)c4n3)cc2)CC1` (stereo partly drawn) [Compound 32], the inhibition at 0.001 µM lay within 30 to 60%, the inhibition at 0.01 µM is above 90% and the inhibition at 0.1 µM is above 90%.

For `C=CC(=O)N1CCN(C(CC(C)(C)C)c2ccc([C@H](C)Nc3ncc4[nH]c(=O)n(CC)c4n3)cc2)CC1` (stereo partly drawn) [Compound 11], the inhibition at 0.001 µM lay within 30 to 60%, the inhibition at 0.01 µM lay in the range of 60 to 90% and the inhibition at 0.1 µM is above 90%.

For `C=CC(=O)N1CCN(C(CC)c2ccc([C@H](C)Nc3ncc4[nH]c(=O)n(CC)c4n3)cc2)CC1` (stereo partly drawn) [Compound 7], the inhibition at 0.001 µM lay within 30 to 60%, the inhibition at 0.01 µM is 60 to 90% and the inhibition at 0.1 µM was above 90%.

`C=CC(=O)N1CCN(C(CC(C)C)c2ccc([C@H](C)Nc3ncc4[nH]c(=O)n(C5CCC5)c4n3)cc2)CC1` (stereo partly drawn) [Compound 31]: the inhibition at 0.001 µM was in the range of 30 to 60%, the inhibition at 0.01 µM is above 90% and the inhibition at 0.1 µM is above 90%.

On to `C=CC(=O)N1CC2(CCN(C(CC3CC3)c3ccc([C@H](C)Nc4ncc5[nH]c(=O)n(CC)c5n4)cc3)CC2)C1` (stereo partly drawn) [Compound 22], for which the inhibition at 0.001 µM lay within 60 to 90%, the inhibition at 0.01 µM was in the range of 60 to 90% and the inhibition at 0.1 µM was above 90%.

Turning to `C=CC(=O)N(C)C1CCN(C(CC2CC2)c2ccc([C@H](C)Nc3ncc4[nH]c(=O)n(CC)c4n3)cc2)CC1` (stereo partly drawn) [Compound 28], the inhibition at 0.001 µM lay in the range of 30 to 60%, the inhibition at 0.01 µM fell in the range of 60 to 90% and the inhibition at 0.1 µM is above 90%.

With `C=CC(=O)N1CCN(C(CC2CC2)c2ccc([C@H](C)Nc3ncc4c(n3)n(C(C)C)c(=O)n4C)cc2)CC1` (stereo partly drawn) [Compound 38], the inhibition at 0.001 µM was below 30%, the inhibition at 0.01 µM is 60 to 90% and the inhibition at 0.1 µM is 60 to 90%.
